Legend:
[1] = system: excitatory synapses onto CA1 hippocampal interneurons; assay: HFS-induced long-term depression (LTD) of EPSCs, whole-cell recording in hippocampal slices; assay type: cell-based, rat
Description: (§1) The basic methods have been detailed previously (McMahon and Kauer, 1997). Sprague-Dawley rats (15-22 days old) were used in the majority of experiments. In addition, we used TRPV1^−/− mice (Caterina et al., 2000) and wild-type C57BL/6 mice aged between 15 and 21 days (Jackson Laboratory). The TRPV1^−/− mice we used have been backcrossed at least 10 times onto a C57BL/6 background and were obtained from homozygous breeding pairs. Control mice were therefore not littermates but were age-matched, wild-type C57BL/6 animals received from the same supplier in the same shipment. All animal protocols were approved by the Brown University Institutional Animal Care and Use Committee. For mouse experiments, only one brain slice per mouse was used for each experiment, so that reported ‘n’ numbers represent the number of animals. Animals were anaesthetized using halothane or isoflurane and quickly decapitated. The brain was rapidly removed and 300 μm thick coronal slices prepared and stored for at least one hour submerged on a net in artificial cerebrospinal fluid (ACSF) containing in mM: 119 NaCl, 26 NaHCO3, 2.5 KCl, 1.0 NaH2PO4, 2.5 CaCl2, 1.3 MgSO4 and 11 dextrose, saturated with 95% O2/5% CO2 (pH 7.4). Slices were then transferred to a submerged recording chamber and bathed in oxygenated ACSF (28-32° C.) containing elevated divalent cations to reduce epileptiform activity (4 mM CaCl2 and 4 mM MgCl2, replacing MgSO4). A surgical cut was made between the CA3 and CA1 regions. The storage of slices submerged on a net rather than in an interface chamber on filter paper may be important in maintaining slice health and improving the likelihood of observing LTD.
(§2) Slices were continuously perfused with ACSF warmed to 28-32° C. at a flow rate of 1-2 ml/min. Picrotoxin (100 μM) and D-AP5 (50 μM) were added to block GABAA receptor- and NMDAR-mediated synaptic transmission. Whole-cell patch clamp recordings were made from interneurons identified visually in the CA1 stratum radiatum of the hippocampus. […] Patch pipettes were filled with internal recording solution containing in mM: 117 cesium gluconate, 2.8 NaCl, 5 MgCl2, 20 HEPES, 2 ATP-Na^+, 0.3 GTP-Na^+ and 0.6 EGTA. In some experiments 2 μM capsazepine, 140 nM baicalein, or 250 μM GDPβS were also included in the intracellular patch pipette solution. In experiments with BAPTA-containing patch electrodes, EGTA was omitted from the intracellular solution and 25 or 40 mM BAPTA replaced a corresponding amount of cesium gluconate. EPSCs were stimulated at 0.1 Hz (100 μsec) using a bipolar stainless steel stimulating electrode placed in stratum radiatum at least 200 μm from the recorded cell. CA1 interneurons were voltage clamped at −65 mV (not corrected for the liquid junction potential, of ˜10 mV), and EPSCs were evoked by paired pulses with an interval of 50 msec (stimulus intensity typically 50-400 μA). In early experiments, we measured rectification ratios of EPSCs evoked at +40 mV/−60 mV in the presence of 50 μM D-AP5, measured at the time of peak inward synaptic current seen at −70 mV (Lei and McBain, 2004).
High-frequency stimulation was used to induce LTD (HFS; two 1 sec trains at 100 Hz, inter-train interval 20 sec, at 1.5 times test current intensity) with the neuron held in current-clamp mode, so that the HFS trains were delivered with the membrane potential free to vary. Receptor antagonists were added directly to the ACSF at known concentrations for at least 10 minutes prior to HFS. Control experiments were interleaved with those experiments using receptor antagonists or involving slices from TRPVl^−/− mice. The cell input resistance and series resistance were monitored throughout each experiment; cells were discarded if these values changed by more than 10% during the experiment.

[2] = system: excitatory synapses on interneurons; assay: Drug-induced depression of EPSC amplitudes in slices from TRPV1-/- and C57BL/6 wild-type mice; assay type: cell-based, mouse; settings: 12-(S)-HPETE 100 nM; TRPV1−/− mice; P=0.33, n=6
Description: The basic methods have been detailed previously (McMahon and Kauer, 1997). Sprague-Dawley rats (15-22 days old) were used in the majority of experiments. In addition, we used TRPV1^−/− mice (Caterina et al., 2000) and wild-type C57BL/6 mice aged between 15 and 21 days (Jackson Laboratory). The TRPV1^−/− mice we used have been backcrossed at least 10 times onto a C57BL/6 background and were obtained from homozygous breeding pairs. Control mice were therefore not littermates but were age-matched, wild-type C57BL/6 animals received from the same supplier in the same shipment. All animal protocols were approved by the Brown University Institutional Animal Care and Use Committee. For mouse experiments, only one brain slice per mouse was used for each experiment, so that reported ‘n’ numbers represent the number of animals. Animals were anaesthetized using halothane or isoflurane and quickly decapitated. […]
Slices were continuously perfused with ACSF warmed to 28-32° C. at a flow rate of 1-2 ml/min. […] EPSCs were stimulated at 0.1 Hz (100 μsec) using a bipolar stainless steel stimulating electrode placed in stratum radiatum at least 200 μm from the recorded cell. […] In early experiments, we measured rectification ratios of EPSCs evoked at +40 mV/−60 mV in the presence of 50 μM D-AP5, measured at the time of peak inward synaptic current seen at −70 mV (Lei and McBain, 2004).
The maximal initial slope of fEPSPs was calculated using a LabVIEW-based program (National Instruments). The peak amplitude of each EPSC was measured by comparing a 10 msec time period immediately prior to the stimulus with the peak of the EPSC using this program as well. Occasionally polysynaptic responses were evoked, and in these cases, only the initial monosynaptic event was measured. To positively identify LTD, EPSCs measured every 10 seconds were averaged in 1 minute intervals. […]

[3] = system: synapses between CA3 and CA1 pyramidal cells; assay: Field EPSP recordings in hippocampal slices; assay type: cell-based, rat; settings: 100 nM 12-(S)-HPETE; P=0.83, n=5
Description: The maximal initial slope of fEPSPs was calculated using a LabVIEW-based program (National Instruments). The peak amplitude of each EPSC was measured by comparing a 10 msec time period immediately prior to the stimulus with the peak of the EPSC using this program as well. Occasionally polysynaptic responses were evoked, and in these cases, only the initial monosynaptic event was measured. To positively identify LTD, EPSCs measured every 10 seconds were averaged in 1 minute intervals. EPSC amplitude values were normalized to control pre-HFS EPSC amplitude values (baseline period of at least 5 minutes prior to HFS) and subjected to analysis of variance (ANOVA) repeated measures analysis with a post-hoc Dunnett's test (GraphPad Prism, Version 4). […] EPSC amplitude values 15 to 20 minutes post-HFS were compared between control LTD experiments and those carried out either in transgenic TRPV1^−/− mice, or in the presence of drug using a t-test (unpaired, two-tailed, with Welch's correction if the variances between the groups were unequal). To calculate the effects of capsaicin, 12-(S)-HPETE or WIN 55,212-2 application on basal excitatory glutamatergic transmission, normalized EPSC amplitudes or fEPSP slopes were averaged in the final 5 minutes of drug application and compared with EPSCs/EPSPs 5 minutes prior to drug application. In addition, to measure capsaicin's effects on holding current, the peak change in holding current was measured during bath application of 3 μM capsaicin. The n-values reported refer to the number of slices. All combined data are expressed as mean±the standard error of the mean (s.e.m.).

[4] = system: excitatory synapses onto CA1 hippocampal interneurons; assay: Drug-induced depression of EPSC amplitudes, whole-cell recording in hippocampal slices; assay type: cell-based, rat
Description: as §1, §2
The maximal initial slope of fEPSPs was calculated using a LabVIEW-based program (National Instruments). The peak amplitude of each EPSC was measured by comparing a 10 msec time period immediately prior to the stimulus with the peak of the EPSC using this program as well. Occasionally polysynaptic responses were evoked, and in these cases, only the initial monosynaptic event was measured. To positively identify LTD, EPSCs measured every 10 seconds were averaged in 1 minute intervals. EPSC amplitude values were normalized to control pre-HFS EPSC amplitude values (baseline period of at least 5 minutes prior to HFS) and subjected to analysis of variance (ANOVA) repeated measures analysis with a post-hoc Dunnett's test (GraphPad Prism, Version 4).

[5] = system: excitatory synapses onto CA1 hippocampal interneurons; assay: Synaptic failure analysis using minimal stimulation; assay type: cell-based, rat; settings: 12-(S)-HPETE 100 nM; pre-application 35.2±1.9%; n=6
Description: as §2, with “CA1 interneurons were voltage clamped at −65 mV (not corrected for the liquid junction potential, of ˜10 mV), and EPSCs were evoked by paired pulses with an interval of 50 msec (stimulus intensity typically 50-400 μA).” left out

TRPV1 channels = target: T1, TRPV1 channels (Mus musculus, UniProt Q704Y3); assay: TRPV1 agonist-evoked inward current and depolarization in CA1 pyramidal neurons; assay type: cell-based; settings: 12-(S)-HPETE 100 nM bath-applied
T1 construct: whole-cell recordings from acutely prepared brain slices from wild type C57BL/6 mice; from tissue; host or cells: acute coronal hippocampal slices from P14-P20 wild-type C57BL/6 mice: CA1 pyramidal neurons
T1 sequence (Q704Y3 whole entry): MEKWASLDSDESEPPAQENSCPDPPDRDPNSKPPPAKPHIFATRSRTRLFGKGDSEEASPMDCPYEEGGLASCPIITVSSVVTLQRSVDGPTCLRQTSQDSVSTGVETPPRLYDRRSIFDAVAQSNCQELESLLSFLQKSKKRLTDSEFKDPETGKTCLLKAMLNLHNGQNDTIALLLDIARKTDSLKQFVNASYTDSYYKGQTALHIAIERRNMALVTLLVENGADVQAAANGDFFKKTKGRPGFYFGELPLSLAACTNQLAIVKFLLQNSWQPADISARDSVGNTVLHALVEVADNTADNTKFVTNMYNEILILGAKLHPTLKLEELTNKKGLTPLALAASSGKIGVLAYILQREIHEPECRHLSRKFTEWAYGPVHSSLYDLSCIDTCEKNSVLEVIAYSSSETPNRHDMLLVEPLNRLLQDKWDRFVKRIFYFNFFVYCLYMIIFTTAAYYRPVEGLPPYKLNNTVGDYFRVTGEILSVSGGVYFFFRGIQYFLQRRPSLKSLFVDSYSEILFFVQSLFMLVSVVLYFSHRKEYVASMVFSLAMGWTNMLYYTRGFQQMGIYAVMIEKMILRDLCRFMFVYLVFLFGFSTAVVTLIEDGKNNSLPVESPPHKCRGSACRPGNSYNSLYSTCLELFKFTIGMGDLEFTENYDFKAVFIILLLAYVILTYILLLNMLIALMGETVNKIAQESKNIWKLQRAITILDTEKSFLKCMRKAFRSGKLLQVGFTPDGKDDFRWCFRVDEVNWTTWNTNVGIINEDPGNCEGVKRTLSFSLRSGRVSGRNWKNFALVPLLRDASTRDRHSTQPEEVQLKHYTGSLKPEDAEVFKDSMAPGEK

With C=C(C)[C@]12C[C@@H](C)[C@@]34O[C@](Cc5ccccc5)(O[C@@H]1[C@@H]3C=C(COC(=O)Cc1cc(I)c(O)c(OC)c1)C[C@]1(O)C(=O)C(C)=C[C@@H]41)O2 [5′-Iodoresiniferatoxin] the “EPSC amplitudes 15-20 minutes post-HFS in 5′-Iodoresiniferatoxin” value ([1]; 5′-Iodoresiniferatoxin 100 nM bath applied prior to HFS, n=7) was 96.2±13.6 % of control values before HFS.

In the case of CCCCC/C=C\C[C@@H](/C=C/C=C\C/C=C\CCCC(=O)O)OO [12-(S)-HPETE, 12-(S)-Hydroperoxyeicosa-5Z, 8Z, 10E, 14Z-tetraenoic acid], the “EPSC amplitudes after 10-15 minutes in 12-(S)-HPETE in TRPV1−/− mice” value [2] is reported as 109.0±6.8 % of pre-drug control values, the “EPSC amplitudes 15-20 minutes post-HFS” value ([1]; HFS after 12-(S)-HPETE 100 nM (occlusion), n=6) is reported as 98.7±15.3 % of control values in 12-(S)-HPETE before HFS and the “fEPSP slopes after 10-15 minutes in 12-(S)-HPETE” value [3] is reported as 99.0±3.5 % of pre-drug control values. The “EPSC amplitudes after 10-15 minutes in 12-(S)-HPETE” value ([4]; 12-(S)-HPETE 100 nM bath-applied, n=8) was 40.6±11.7 % of pre-drug control values, the “average synaptic failures in 12-(S)-HPETE” value [5] was 89.7±3.0% and the “12-(S)-HPETE-evoked current in CA1 neuron” value (TRPV1 channels) was “induces an inward current”.

For Cc1c(C(=O)NN2CCCCC2)nn(-c2ccc(Cl)cc2Cl)c1-c1ccc(I)cc1 [AM251], the “EPSC amplitudes 15-20 minutes post-HFS” value ([1]; AM251 2 μM bath-applied, n=8) was 48.6±5.3 % of control values before HFS and the “EPSC amplitudes after 10-15 minutes in both WIN 55,212-2 and AM251” value ([4]; AM251 2 μM applied before WIN 55,212-2 1 μM, n=5) was 101.7±8.9 % of pre-WIN 55,212-2 control values.

With O=C(O)CN(CC(=O)O)c1ccccc1OCCOc1ccccc1N(CC(=O)O)CC(=O)O [BAPTA, 1,2-bis(o-aminophenoxy)ethane-N,N,N′,N′-tetraacetic acid] the “cells recorded from with intracellular BAPTA that had LTD” value ([1]; patch pipette solution containing 25-40 mM BAPTA) was 6 of 14 and the “EPSC amplitudes 15-20 minutes post-HFS with intracellular BAPTA” value ([1]; patch pipette solution containing 25-40 mM BAPTA, n=14) was 90.5±8.5 % of control values before HFS.

In the case of N[C@H](CCCP(=O)(O)O)C(=O)O [D-AP5, D(−)-2-amino-5-phosphonovaleric acid], the “EPSC amplitudes 15-20 minutes post-HFS” value ([1]; D-AP5 50 μM in bath, P<0.001, n=26, LTD not prevented) is reported as 62.0±5.3 % of control values before HFS.

Source: patent publication US20110166196A1, “TREATMENT AND PROPHYLAXIS OF EPILEPSY AND FEBRILE SEIZURES” (priority 2008, published 2011)
